In assay [1] the test system is Bl6F10 metastatic melanoma cells. Briefly: In vivo experimental metastasis (lung colonization) model. The note with it: cells cultured in 1% O2 with 8-Br-cGMP (1 μM). Details: species or system C57BL6 mice. The method, then: C57BL6 mice were injected i.v. (tail vein) with a bolus of 5×10^4-10^5 Bl6F10 metastatic melanoma cells. Immediately after the tail vein injection, mice were randomly divided into groups of 15 and mice in each group were placed in plexiglass chambers (approximately 3 L) which were continuously flushed with gas mixtures of 20% O2:balance N2 and 10% O2:balance N2, respectively. […] After a 24 hour exposure to an atmosphere of either 20% O2 or 10% O2, mice were removed from the chambers and placed in regular cages kept at room air. Thirteen days later, mice were sacrificed by cervical dislocation, and lungs were removed and fixed in Bouin's fixative (Sigma). Metastatic nodules (many of which appeared black due to the presence of melanin) on the surface of the lungs were counted visually under a dissecting microscope. Data were expressed as the number of lung nodules per 10^4 cells injected and were analyzed using statistical tests for non-parametric values.
(§1) Cells were then removed from plates with trypsin and 5×10^4 cells were injected i.v. (tail vein) into C57BL6 female mice. Some of the cells treated in vitro were plated onto tissue culture dishes to determine colony-forming ability using the protocol described below in the Section I.J.
(§2) Following harvesting from culture plates, 5×10^4 cells were injected intravenously (tail vein injections) into 5-7 week old C57Bl/6 female mice. Cells were also plated in tissue culture plates to determine the effect of culture conditions on in vitro colony forming ability. Fourteen days after intravenous inoculation, mice were sacrificed and their lungs were removed and fixed in Bouin's fixative. Both melanotic and amelanotic metastatic colonies were counted under a dissecting microscope. Data were expressed as the number of lung nodules per 5×10^4 viable cells injected (as determined by in vitro colony-forming ability) and were analyzed using statistical tests for non-parametric values.

The next assay deals with uPAR protein. As to the kind of experiment: Western blot analysis of uPAR protein in MDA-MB-231 breast carcinoma cells. In kind it is cell-based, human. The method, then: Following incubations, the cells were lysed using a buffer containing 40 mM HEPES pH 7.2, 100 mM NaCl, 20% glycerol, 0.1 mM EDTA pH 8.0, 0.2% Triton X-100, 1 mM DTT, and 2 mM PMSF. The lysates were then subjected to homogenization, DNA shearing (10 times with a 25⅝-gauge needle), boiling (5 minutes) and centrifugation (15 minutes, 14000 g). The supernatant was collected and stored at −80° C. until use. The samples were subjected to SDS-polyacrylamide gel electrophoresis (PAGE) and the resolved proteins were transferred to an Immobilon-P membrane using a wet transfer apparatus (Bio-Rad Laboratories, Mississauga, ON). The membranes were blocked overnight at 4° C. in a solution containing 1% PBS, and 0.01% Tween20 (PBS-T) as well as 5% casein. The blots were subsequently incubated for 1.5 hours with the monoclonal anti-uPAR antibody [MoAb 3937], followed by six 5 minute washes with PBS-T. The membranes were then incubated with a horseradish peroxidase labeled goat anti-mouse IgG secondary antibody for 1.5 hours. Following six additional 5 minute washes with PBS-T, the antigen was detected by enhanced chemiluminescence and the blots were exposed onto Dupont Reflection NEF film.
Following incubation, the cells were lysed using a buffer containing 40 mM HEPES pH 7.2, 100 mM NaCl, 20% glycerol, 0.1 mM EDTA pH 8.0, 0.2% Triton X-100, 1 mM dithiothreitol (DTT), and 2 mM phenylmethyl sulfonyl fluoride (PMSF). The lysates were then subjected to homogenization, DNA shearing (10 times with a 25⅝-gauge needle), boiling (5 minutes) and centrifugation (15 minutes at 14,000×g). The supernatant was collected and stored at −80° C. until use. The samples were subjected to SDS-polyacrylamide gel electrophoresis (PAGE) and the resolved proteins were transferred to an Immobilon-P membrane (Millipore Corp., Bedford, Mass.) using a wet transfer apparatus (BioRad Laboratories, Mississauga, ON). The membranes were blocked overnight at 4° C. in a solution containing 1% PBS, and 0.01% Tween 20 (PBS-T) as well as 5% dry milk powder. The blots were subsequently incubated for 1.5 hours with the monoclonal anti-uPAR (MoAb 3937; American Diagnostica Inc., Greenwich, Conn.), or a polyclonal soluble guanylate cyclase (sGC) antiserum (Cayman Chemical, Ann Arbor, Mich.) followed by six 5-minute washes with PBS-T. Subsequently, the uPAR membranes were incubated for 1 hour with a horseradish peroxidase labelled goat anti-mouse IgG secondary antibody (Bio-Rad, Hercules, Calif.) and the sGC membranes were incubated for 1 hour with a goat anti-rabbit IgG horseradish peroxidase conjugate (VECTOR Laboratories Inc., Burlingame, Calif.). Following six additional 5-minute washes with PBS-T, the antigen was detected by enhanced chemiluminescence (Amersham Canada Inc., Mississauga, ON) and the blots were exposed onto Dupont Reflection NEF film.
(In western blotting, separated proteins are transferred to a membrane and probed.)

In assay [2] the test system is MDA-MB-231 breast carcinoma cells. Briefly: In vitro Matrigel invasion assay, MDA-MB-231. In kind it is cell-based, human. The method, then: The chambers consist of cell culture inserts, 6.5 mm in diameter and with a 8 μm pore size membrane. Each membrane was coated with 100 μL of a 1 mg/mL solution of Matrigel diluted in cold serum-free culture medium (EX-CELL 300), and allowed to dry in a laminar flow cabinet for approximately 12 hours. The Matrigel was then rehydrated by incubating it with 100 μL of serum-free medium for approximately 1 hour. After rehydration, cell suspensions containing 5.0×10^4 or 1.0×10^5 cells in 100 μL of medium, containing both serum and the nitric oxide treatments, were added to each well. Culture medium containing serum and the respective nitric oxide treatment were then added to each insert. The cells were incubated for 24 hours under either hypoxic (1% O2) or control (20% O2) conditions. Following incubation, the non-invading cells were removed from the upper surface of the membrane by wiping with a cotton swab. The cells on the lower surface of the membrane were fixed for 10 minutes with Carnoy's fixative (25% acetic acid, 75% methanol), and then stained for approximately 3 hours with a 1% toluidine blue, 1% sodium borate solution. Following a rinse in phosphate-buffered saline (PBS), the membrane was removed from the insert housing with a small scalpel blade, mounted onto a microscope slide and coverslipped. Invading cells were then viewed under the microscope at 40× magnification and counted. The invasion index for each treatment was calculated by dividing the number of invading cells by the number of cells which invaded under standard conditions. This value was then multiplied by 100 to obtain a percentage. The standard was given a value of 100% and the treatment values were converted to a percentage of the standard. The results were tested for statistical significance using either the Tukey test for pair-wise multiple comparison procedures or the Student-Newman-Keuls method for pair-wise multiple comparison procedures.
The chambers consisted of 6.5-mm inserts with 8-μm pore membranes (Corning Costar Corp., Cambridge, Mass.). Each membrane was coated with 100 μL of a 2.6 mg/mL solution of Matrigel (Collaborative Biochemical Products, Bedford, Mass.) diluted in cold serum-free medium (EX-CELL 300; JRH Biosciences, Lenexa, Kans.), and allowed to dry in a laminar flow cabinet for approximately 12 hours. The Matrigel was then rehydrated with 100 μL of serum-free medium for approximately 1 hour. […] Invading cells were then viewed under the microscope at 40× magnification and counted. The invasion index for each treatment was calculated by dividing the number of invading cells by the number of cells that invaded under standard (20% oxygen) conditions. Invasion indices were expressed as percentages of control (20% oxygen) values. […]

Assay [3] deals with Bl6F10 mouse melanoma cells. As to the kind of experiment: In vitro colony-forming ability of treated Bl6F10 melanoma cells. The conditions noted are these: 8-Br-cGMP treatment. In kind it is cell-based. The method, then: as §1, §2
A further assay has as its system uPAR mRNA. As to the kind of experiment: Northern blot analysis of uPAR mRNA in MDA-MB-231 breast carcinoma cells. In kind it is cell-based, human.
Assay [4] relates to hypoxia-inducible factor-1. The conditions noted are these: hypoxically cultured Hep3B cells; read-out: IC50 for suppression of the adaptive cellular response controlled by hypoxia-inducible factor-1; cited from earlier work.
The conditions of assay [5]: concentrations up to 500 μM; cited from earlier work.
Assay [6] has as its system MDA-MB-231 breast carcinoma spheroids. As to the kind of experiment: Clonogenic survival of MDA-MB-231 spheroids after doxorubicin. In kind it is cell-based, human. The procedure:
Following initial cell plating, spheroids formed for 24, 48, 72, 96 or 120 h. At each time point, spheroids were exposed to 200 μM of doxorubicin, then disaggregated and plated for assessment of colony formation (survival).
Spheroids were allowed to form for 72 h. DETA/NO was applied for the final 24 h of spheroid formation. Spheroids were then exposed to doxorubicin for 1 h, prior to disaggregation and plating for assessment of survival by clonogenic assay.
Using human MDA-MB-231 breast carcinoma cells in clonogenic assays, survival was determined following doxorubicin exposure and NO mimetic administration to both monolayer and spheroid cultures.

The mark [7] stands for this setting: 8-Br-cGMP 0.1 μM-10 μM, 24 hours, dose-dependent.
Setting [8] is: 8-Br-cGMP 10^−3-10^−7 M, 0.5% O2 or DFO 100 μM.

Where a name gives a salt, the structure may show the parent alone.

These results are taken from patent publication US8168232B2, “Formulations and methods of using nitric oxide mimetics in cancer treatment” (priority 2000, dated 2012).

Consider `Nc1nc2c(nc(Br)n2[C@@H]2O[C@@H]3COP(=O)(O)O[C@H]3[C@H]2O)c(=O)[nH]1` [8-Br-cGMP, 8-bromoguanosine 3′:5′-cyclic monophosphate], for which the “hypoxic induction of metastatic lung nodules” value in assay [1] is reported as “completely abrogated”. In addition, in the assay with uPAR protein (setting [7]), the “reduction of hypoxic upregulation of uPAR protein expression” value was “up to 100%”. The “effect on hypoxia- and DFO-induced uPAR expression, protein level” value in the assay on uPAR protein (setting [8]) is given as “significantly abrogated”. The “effect of hypoxia on invasiveness” value in assay [2] (0.1 μM-1 mM, 24-h, 0.5% O2) is recorded as “completely inhibited”. In addition, the hypoxia-associated invasion entry in assay [2] (8-Br-cGMP) is “significantly inhibit”. The “viability of the cells (colony formation assay)” value in assay [3] is “did not affect the viability”. Besides, the “reduction of hypoxic upregulation of uPAR mRNA expression” value in the assay on uPAR mRNA (setting [7]) is recorded as “up to 100%”. In addition, the “effect on hypoxia- and DFO-induced uPAR expression, mRNA level” value in the assay with uPAR mRNA (setting [8]) was “significantly abrogated”. Further, the “DFO-induced upregulation of uPAR mRNA expression” value in the assay with uPAR mRNA (8-Br-cGMP (1 mM) as printed) is recorded as “complete inhibition”.

`O=c1onc2cnc3ccccc3n12` [ODQ, 1H-[1,2,4]Oxadiazolo-[4,3-a]Quinoxalin-1-One]: in the assay with uPAR protein (ODQ 0.5 μM), the “effect on ability of GTN (10^−6 M) to abrogate hypoxic induction of uPAR, protein level” value is “substantially prevented”. Also, the “effect on ability of GTN (10^−6 M) to abrogate hypoxic induction of uPAR, mRNA level” value with uPAR mRNA (ODQ 0.5 μM) is reported as “substantially prevented”. In the assay with uPAR mRNA (ODQ 0.5 μM, 24 hours, vs 20% O2 alone), the “increase in uPAR mRNA levels” value amounted to 2.7 fold.

In the case of `N=c1c[n+](N2CCOCC2)[n-]o1` [3-morpholinosydnonimine], in assay [4], the IC50 (commonly the concentration at which inhibition is half-maximal) is 490 µM.

Consider `CC(C)N[N+]([O-])=N[O-].[Na+]` [isopropylamine-bis(nitric oxide) adduct sodium salt], for which the cell viability entry in assay [5] is recorded as “did not significantly affect cell viability”.

For `O=S(=O)(NCCNC/C=C/c1ccc(Br)cc1)c1cccc2cnccc12` [H-89], the invasiveness result in assay [2] (H-89 1 μM alone) was “independently enhanced invasiveness”. Besides, the “effect of forskolin on invasion” value in assay [2] (H-89 1 μM with forskolin 10 μM) is given as “prevented”. Also, the “effect of forskolin on uPAR expression” value with uPAR mRNA (H-89 1 μM with forskolin 10 μM) was “prevented”. Further, in the assay on uPAR mRNA (H-89 1 μM, independent of oxygenation), the uPAR expression entry is reported as “up-regulation”.

Turning to `CCN(CC)[N+]([O-])=NO` [diethylamine-bis(nitric oxide) adduct sodium salt], the cell viability entry in assay [5] is recorded as “did not significantly affect cell viability”.

As for `NCCN(CCN)/[N+]([O-])=N/O` [DETA, Diethylenetriamine/nitric oxide adduct], the “attenuation of resistance to 200 μM doxorubicin associated with 3D culture” value in assay [6] is on record as 90%. The “survival of control (doxorubicin-untreated) cells” value in assay [6] (DETA 0.1 mM and 2 μM, GTN 0.1 nM and 1 μM) is “did not affect the survival”.

With `CCCN(CCCN)N(O)N=O` [3-(n-propylamino)propylamine bis(nitric oxide) adduct], the cell viability result in assay [5] is listed as “did not significantly affect cell viability”.

Regarding `CC(=O)N(O)CCCCCNC(=O)CCC(=O)N(O)CCCCCNC(=O)CCC(=O)N(O)CCCCCN.CS(=O)(=O)O` [DFO, Desferoxamine mesylate], in the assay on uPAR mRNA (cells cultured in the presence of DFO), the “increase in uPAR mRNA levels” value is on record as 4 fold.

In the case of `N[C@@H](CCC(=O)N[C@@H](CSN=O)C(=O)NCC(=O)O)C(=O)O` [S-nitroso-L-glutathione], the half-maximal inhibitory concentration (IC50) in assay [4] was 211 µM.

In the case of `O=NN(O)S(=O)(=O)O` [N-nitrosohydroxylamine-N-sulfonate], the cell viability entry in assay [5] is “did not significantly affect cell viability”.

On to `COC(=O)[C@@]1(OC)C[C@H]2O[C@]1(C)n1c3ccccc3c3c4c(c5c6ccccc6n2c5c31)C(=O)N(C)C4` [KT5823], for which the “increase in uPAR protein expression” value in the assay with uPAR protein (KT5823 10 μM, 6 hours, 20% O2) stood at 1.8 fold. Besides, the “effect on the effects of 8-Br-cGMP on uPAR expression” value in the assay on uPAR mRNA (KT5823 10 μM) is listed as “significantly blunted”. Also, the “increase in uPAR mRNA expression” value with uPAR mRNA (KT5823 10 μM, 6 hours, 20% O2) is reported as 1.8 fold.

As for sodium trioxodinitrate (II) monohydrate, the cell viability result in assay [5] was “did not significantly affect cell viability”.
